Laboratory results published in US6177404A (Merck & Co., Inc., priority 1998, dated 2001).

Key:
[1] = tested on: LNCaP prostate tumor cells; assay: In vitro Alamar Blue cytotoxicity assay of non-cleavable oligopeptide-doxorubicin conjugates; type: cell-based, human; conditions: FIG. 4 legend, cells incubated 3 days at 37° C., cell line not named in legend (LNCaP or DuPRO in method)
Method: The cytotoxicities of the non-cleaveable oligopeptide-doxorubicin conjugates, prepared as described in Example 4, against a line of cells which is known to be killed by unmodified doxorubicin were assessed with an Alamar Blue assay. Specifically, cell cultures of LNCaP prostate tumor cells, which are a human metastatic prostate adenocarcinoma isolated from a needle biopsy of a lymph node (LNCaP.FGC: American Type Culture Collection, ATCC CRL 1740), or DuPRO cells in 96 well plates were diluted with medium containing various concentrations of a given conjugate (final plate well volume of 200 μl). The cells were incubated for 3 days at 37° C. and then 20 μl of Alamar Blue was added to the assay well. The cells were further incubated and the assay plates were read on a EL-310 ELISA reader at the dual wavelengths of 570 and 600 nm at 4 and 7 hours after addition of Alamar Blue. Relative percentage viability at the various concentration of conjugate tested was then calculated versus control (no conjugate) cultures. Cytotoxicities of unmodified doxorubicin and unmodified oligopeptide were also assessed.

[2] = tested on: free PSA

Compound | cleaved bond [2] | EC50 [1]
COc1cccc2c1C(=O)c1c(O)c3c(c(O)c1C2=O)C[C@@](O)(C(=O)CO)C[C@@H]3O[C@H]1C[C@H](N)[C@H](O)[C@H](C)O1 [doxorubicin] |  | 300 nM
Ac-AlaAsnLysAlaSerTyrGln.vertline.SerAlaSerCys-amide | Gln-Ser | 
Ac-AlaAsnLysAlaSerTyrGln.vertline.SerAlaSerThrGlu-amide | Gln-Ser | 
Ac-AlaAsnLysIleSerTyrGln.vertline.SerSerGlnThrGlu-amide | Gln-Ser | 
Ac-AlaAsnLysIleSerTyrGln.vertline.SerSerLysThrGlu-amide | Gln-Ser | 
Ac-AlaAsnLysIleSerTyrGln.vertline.SerSerSerThrGlu-amide | Gln-Ser | 
Ac-AlaAsnLysIleSerTyrGln.vertline.SerSerSerThrLeu | Gln-Ser | 
Ac-AlaAsnLysIleSerTyrGln.vertline.SerSerThrGlu-amide | Gln-Ser | 
Ac-AlaAsnLysIleSerTyrGln.vertline.SerThrGlu-amide | Gln-Ser | 
Ac-AlaAsnSerTyrGln.vertline.SerSerSerThrGlu-amide | Gln-Ser | 
Ac-AlaAspLysAlaLysTyrGln.vertline.SerSer(Cha)-NHNH2 | Gln-Ser | 
Ac-AlaSerTyrGln.vertline.SerSerLeu-amide | Gln-Ser | 
Ac-AlaSerTyrGln.vertline.SerSerSerThrGlu-amide | Gln-Ser | 
Ac-AsnLysIleSerTyrGln.vertline.SerSer-amide | Gln-Ser | 
Ac-LysIleSerTyrGln.vertline.SerSer-amide | Gln-Ser | 
Ac-SerTyrGln.vertline.SerSerSerThrGlu-amide | Gln-Ser | 
Ac-SerTyrGln.vertline.SerSerThrGlu-amide | Gln-Ser | 
Ac-hArgTyrGln.vertline.SerSerSer(Ethylester-Leu) | Gln-Ser | 
Ac-hArgTyrGln.vertline.SerSerSer(MeLeu) | Gln-Ser | 
AlaAsnLysIleSerTyrGln.vertline.SerSerSerThrGlu-amide | Gln-Ser | 

Second part, led by results:

cleaved bond [2] | Compound | EC50 [1]
Gln-Ser | Ac-AlaAsnGluIleSerTyrGln.vertline.SerAlaSerThrGlu-amide | 
Gln-Ser | Ac-AlaAsnLysIleSerTyrGln.vertline.SerAlaLysThrGlu-amide | 
Gln-Ser | Ac-AlaAsnLysIleSerTyrGln.vertline.SerAlaSerThrGlu-amide | 
Gln-Ser | Ac-AlaAsnLysIleSerTyrGln.vertline.SerSerSerThrLeu-amide | 
Tyr-Ser | Ac-AlaAsnLysIleSerTyrTyr.vertline.SerAlaSerThrGlu-amide | 
Tyr-Ser | Ac-AlaAsnLysIleSerTyrTyr.vertline.SerSerSerThrGlu-amide | 
Gln-Ser | Ac-AlaAsnLysSerTyrGln.vertline.SerSerThrGlu-amide | 
Gln-Ser | Ac-AlaSerTyrGln.vertline.SerSerThrGlu-amide | 
Gln-Ser | Ac-hArg(Cha)Gln.vertline.SerSerSer(ethylester-Leu) | 
